The results in this text go back to article PMC6300282, “Sulphamethazine derivatives as immunomodulating agents: New therapeutic strategies for inflammatory diseases” (PLoS ONE, 2018).

The structures appear in SMILES notation.

Series [1] has as its system TNF-α production from THP-1 human monocytic leukemia cell line. The series can be described thus: TNF-α production (ELISA), LPS stimulated THP-1 cells. The conditions noted are these: PMA-differentiated THP-1 cells, 50 ng/mL LPS, 4 hours; three doses 1, 10, 100 μg/mL; mean ± SD of three. The series is classed as cell-based. The text has this: RPMI-1640 (R8758, Sigma Aldrich, St. Louis, USA); L-glutamine (25030081, Gibco, California, USA); D-glucose (G8270, Sigma Aldrich, St. Louis, USA); 2-mercaptoethanol (190242, MP Biomedicals, lllkirch, France); sodium pyruvate (11360–070, Gibco, California, USA); FBS (A11-104, PAA Laboratories, Pasching, Austria); HEPES (H3375, Sigma Aldrich, St. Louis, USA); PMA (151864, MP Biomedicals, lllkirch, France); lipopolysaccharide B of E. coli 0111:B4 (LPS) (3922–25, DIFCO Laboratories, USA); 24-well tissue culture plates (CLS3524, Corning, Dublin, USA); Flat bottom 96-well tissue culture plates (CLS3300, Corning, New York, USA). BSA (151429, MP Biomedicals, lllkirch, France); PBS tablets (41620016–4, Bioworld, Dublin, Ireland); Tween 20 (822184, Merck, Damstadt, Germany); Human TNF-α DuoSet ELISA Kit (DY210, R&D Systems, Minneapolis, USA); Human IL-1β DuoSet ELISA Kit (DY201, R&D Systems, Minneapolis, USA); and Human IL-2 DuoSet ELISA Kit (DY202, R&D Systems, Minneapolis, USA); ELISA plate sealers (DY992, R&D Systems, Minneapolis, USA); Clear flat bottom 96-well microplates (DY990, R&D Systems, Minneapolis, USA). Human monocytic leukemia cells THP-1 were obtained from (European Collection of Cell Cultures, UK). The cells were maintained in RPMI-1640 containing 5.5 mmol/L glucose (BioM Laboratories, Chemical Division, Malaysia), 50 μmol/L mercaptoethanol (Merck Damstadt, Germany), 10% FBS (fetal bovine serum), 2 mmol/L; L-glutamine (PAA Laboratories, GmbH, Pasching, Austria). Cells were grown in 75 cc flasks, harvested and 2.5×10^5 cells/mL was then plated in 24-well tissue culture plates. 20 ng/mL of phorbol-12-myristate-13-acetate (PMA), (SERVA, Heidelberg, Germany) was added followed by incubation for 24 hours at 37 °C in 5% CO2to convert them into macrophage like cell. Cells were then stimulated with E. coli lipopolysacchride B, (DIFCO Laboratories, michigon, USA) at a final concentration of 50 ng/mL and treated with compounds at three different concentration (1, 10 and 100 μg/mL) and then incubated for 4 hours at 37 °C in 5% CO2. The supernatants collected were analyzed for the level of TNF -α using the human TNF-α Duo Set ELISA (R&D Systems, Minneapolis, USA), and according to manufacturer’s instructions.

The subject of series [2] is Pseudomonas aeruginosa (POA 286). Description: Microplate Alamar Blue Assay, Pseudomonas aeruginosa. The conditions noted are these: 200 μg/mL, NI = No inhibition; for inhibition at 200 µg/mL: Pseudomonas aeruginosa, read-out: Percentage (%) Inhibition, Pseudomonas aerugenosa. It is filed as cell-based. As for the experimental part: (§1) The anti-bacterial activity of synthesized compound were evaluated by the Microplate Alamar Blue Assay. Staphylococcus aureus (ATCC 25923), Pseudomonas aeruginosa(POA 286), Salmonella typhi (ATCC 14028), Bacillus subtilis ATCC 6633) and Escherichia coli (ATCC 12022) were used in this study as a standard bacterial strains and they were obtained from microbial bank of PCMD, International Center for Chemical and Biological Sciences, University of Karachi, Karachi-75270, Pakistan. The bacterial colonies grown in Trypton Soya Agar (TSA) (Oxoid Limited, UK) were inoculated in Mueller Hinton Broth (MHB) (Oxoid Limited, UK) and incubated overnight at 37 °C. Fully grown bacterial cultures were then diluted to adjust with 0.5 McFarland Turbidity Index (equivalent to 1.5 × 10^8 CFU/mL). Stock solutions (4 mg/mL) of different test compounds were prepared in DMSO and 10μL each of these stock solutions were placed in well of flat bottom, polystyrene, sterile 96-wells plate except the positive control wells (media + bacteria). This gives 200μg/mL concentrations of compounds in final 200 μL solution. Each compound was run in triplicates. Finally, bacterial suspension (5 x 10^6 CFU/mL) was added in each well. Plates were sealed by parafilm and incubated at 37 °C for 18–22 hrs. Next day, 20 μL of 0.02% resazurin sodium salt dye (Chem-Impex-Int’LInc) was added in each well and incubated in shaking incubator at 80 rpm, 37 °C for 2–3 hrs. The color change from blue to reddish pink indicates the growth of bacteria. For quantitative analysis, plates were read at 570 nm and 600 nm in Multiskan GOmicroplate spectrophotometer, (Thermo Scientific, USA). The % inhibition of bacterial growth was calculated using below mentioned formula.
(§2) For the calculation of the % difference in reduction between treated and control cells in cytotoxicity/proliferation assays: =(εOX)λ2Aλ1-(εOX)λ1Aλ2oftestagent/(εOX)λ2A°λ1-(εOX)λ1A°λ2ofpositivegrowthcontrol×100

The nature of a further series: MTT cytotoxicity assay. It is filed as cell-based, mouse. To be noted: mouse; MTT, 48 hours; read-out: Cytotoxicity NIH-3T3 cell line (IC50). The procedure: (§3) The cytotoxicity was recorded as concentration causing 50% growth inhibition (IC50).
Series [3] deals with Salmonella typhi (ATCC 14028). The series can be described thus: Microplate Alamar Blue Assay, Salmonella typhi. It is filed as cell-based. To be noted: 200 μg/mL, NI = No inhibition; for inhibition at 200 µg/mL: Salmonella enterica, read-out: Percentage (%) Inhibition, Slamonella typhi. The procedure: as §1, §2
Series [4] has as its system Bacillus subtilis (ATCC 6633). The series can be described thus: Microplate Alamar Blue Assay, Bacillus subtilis. The series is classed as cell-based. The conditions noted are these: ATCC6633, 200 μg/mL, NI = No inhibition, read-out: Percentage (%) Inhibition, Bacillus subtilis. The procedure:
as §1, §2

Series [5] has as its system Escherichia coli (ATCC 12022). The series can be described thus: Microplate Alamar Blue Assay, Escherichia coli. The series is classed as cell-based. The conditions noted are these: ATCC12022, 200 μg/mL, NI = No inhibition, read-out: Percentage (%) Inhibition, Escherichia coli. As for the experimental part: as §1, §2
Series [6] has as its system Staphylococcus aureus (ATCC 25923). Description: Microplate Alamar Blue Assay, Staphylococcus aureus. The series is classed as cell-based. To be noted: 200 μg/mL, NI = No inhibition; for inhibition at 200 µg/mL: Staphylococcus aureus, ATCC25923, read-out: Percentage (%) Inhibition, Staphylococcus aureus. The procedure:
as §1, §2

Series [7] concerns mouse fibroblast NIH-3T3 cell line. Description: MTT cytotoxicity assay. The conditions noted are these: MTT, 48 hours. The series is classed as cell-based. The procedure: as §3

Turning to `CC(=O)CCCCn1c(=O)c2c(ncn2C)n(C)c1=O` [42 (Pentoxifillin), Pentoxifillin, reference compound], the “TNF-α Inhibition (IC50)” value in [1] turned out to be 94.8 ± 2.1 mg/L.
With `Cc1cc(C)nc(NS(=O)(=O)c2ccc(NC(=O)C34CCC(C)(C(=O)O3)C4(C)C)cc2)n1` (centres unmarked) [Compound 15, N-(4-(N-(4,6-dimethylpyrimidin-2-yl)sulfamoyl)phenyl)-4,7,7-trimethyl-3-oxo-2-oxabicyclo[2.2.1]heptane-1-carboxamide], the melting point was 254 to 256 °C. Further, in series [2], the inhibition at 200 µg/mL worked out at 29.4%. Moreover, the IC50 in “MTT cytotoxicity assay” is greater than 30 µM. Moreover, the inhibition at 200 µg/mL in series [3] came to 29.3%. In series [4], the inhibition at 200 µg/mL is 38.4%. In series [5], the inhibition at 200 µg/mL was less than 0%. In addition, in series [6], the inhibition at 200 µg/mL stood at 14.1%.
As for `Cc1cc(C)nc(NS(=O)(=O)c2ccc(NC(=O)c3cccc(C(F)(F)F)c3)cc2)n1` [Compound 20], the “Percentage (%) Inhibition, Pseudomonas aerugenosa” value in [2] amounted to 1.66%. For the same compound, the IC50 in series [7] was greater than 30 µM. For the same compound, in [3], the “Percentage (%) Inhibition, Slamonella typhi” value is recorded as 9.30%. For the same compound, the “Percentage (%) Inhibition, Staphylococcus aureus” value in series [6] was found to be 30.78%.
`Cc1cc(C)nc(NS(=O)(=O)c2ccc(NC(=O)c3ccc(Cl)cc3Cl)cc2)n1` [Compound 24, 2,4-dichloro-N-(4-(N-(4,6-dimethylpyrimidin-2-yl)sulfamoyl)phenyl)benzamide] yielded a melting point of 233 to 236 °C. Also, in [2], the inhibition at 200 µg/mL is less than 0%. Besides, the IC50 in “MTT cytotoxicity assay” was greater than 30 µM. In [3], the inhibition at 200 µg/mL came out at 18.4%. Besides, the inhibition at 200 µg/mL in series [4] was less than 0%. For the same compound, the inhibition at 200 µg/mL in [5] came to 7.45%. Also, the inhibition at 200 µg/mL in [6] amounted to 48.4%.
As to `Cc1cc(C)cc(C(=O)Nc2ccc(S(=O)(=O)Nc3nc(C)cc(C)n3)cc2)c1` [Compound 38, N-(4-(N-(4,6-dimethylpyrimidin-2-yl)sulfamoyl)phenyl)-3,5-dimethylbenzamide], the melting point lay in the range of 216 to 218 °C. Further, the inhibition at 200 µg/mL in series [2] worked out at 19%. In “MTT cytotoxicity assay”, the half-maximal inhibitory concentration (IC50) was greater than 30 µM. For the same compound, the inhibition at 200 µg/mL in series [3] is less than 0%. Also, the inhibition at 200 µg/mL in [4] is less than 0%. For the same compound, the inhibition at 200 µg/mL in series [5] is less than 0%. Moreover, in series [6], the inhibition at 200 µg/mL is less than 0%.
